According to article PMC9655037, “Alternation of Organ-Specific Exposure in LPS-Induced Pneumonia Mice after the Inhalation of Tetrandrine Is Governed by Metabolizing Enzyme Suppression and Lysosomal Trapping” (International Journal of Molecular Sciences, 2022):
Where “and” joins values, the source holds several entries; their conditions need not be identical. Identical values can stand only once. Like-named read-outs stand apart in the source and are kept apart here.

Assay: Metabolic stability of TET in NADPH-supplemented liver microsomes from normal and LPS-induced ALI mice
Type: in vitro ADME, mouse
Conditions: for half-life at 1 µM: mouse, microsomes, 1.0 µM TET, 0.5 mg/mL protein, 37 °C, read-out: In vitro t1/2
Procedure: Liver and pulmonary microsomes from normal and LPS-induced pulmonary infected mice were isolated according to the conventional differential centrifugation approach. In brief, six normal mice and six acute pneumonia mice (48 h after i.t. administration of LPS) were sacrificed. Lungs and livers were harvested and rinsed with ice NS. The tissues were weighed and homogenized with 50 mM Tris buffer solution (TBS, m:v = 1:3). The prepared homogenate was then immediately centrifuged at 10,000× g at 4 °C for 20 min. The resulting supernatant was further centrifuged at 105,000× g at 4 °C for 60 min to yield mouse liver microsomes (MLM) and mouse pulmonary microsomes (MPM). The sediment was resuspended with storage buffer (50 mM TBS containing 0.25 M sucrose and 20% glycerol) and stored at −80 °C immediately. The protein content of the harvested microsomes was measured following the BCA protein assay protocol.
TET (1 μM, 1% acetonitrile) was incubated in normal or pneumonia mice liver microsomes or pulmonary microsomes (0.5 mg/mL) diluted with 100 mM PBS (pH 7.4) containing MgCl2 (3 mM). After preincubation of 5 min, the reaction was initiated by adding NADPH (final concentration of 1 mM) at 37 °C. Periodic aliquots of the incubation mixture at 0, 15, 30, and 45 min were removed, and the protein was precipitated with ice-cold acetonitrile containing IS. After centrifugation, the supernatant was collected and analyzed for the depletion of TET by LC-MS/MS.
The in vitro t1/2 in mouse liver microsomal incubation was calculated from the semi-log plot of percentage remaining vs. incubation time and intrinsic clearance (CLint,app mL/min/mg protein) was calculated as Equation (2).
(3) CLint,scaled=CLint,app×45mg microsomes/g liver×g liver/kg body weight (4) CLh,blood=Q×fu,p/Rb/p×CLint/fu,mic/Q+CLint·fu,p/Rb·CLint/fu,mic

COc1ccc2cc1Oc1ccc(cc1)C[C@H]1c3cc(c(OC)cc3CCN1C)Oc1c(OC)c(OC)cc3c1[C@H](C2)N(C)CC3 [TET, Tetrandrine]
CLhep,blood (hepatic clearance, well-stirred model) (LPS-treated mice liver microsomes): 1.48 mL/min/kg and 1.48 ± 0.0136 mL/min/kg | half-life at 1 µM (pH 7.4, LPS-treated mice liver microsomes): 1.4 ± 0.013 h | half-life at 1 µM (pH 7.4, normal mice liver microsomes): 0.88 ± 0.0292 h | CLhep,blood (hepatic clearance, well-stirred model) (normal mice liver microsomes): 2.33 mL/min/kg and 2.33 ± 0.075 mL/min/kg
